Common to all, as to assay type: cell-based
Experiment [1] relates to B16/F10 melanoma cells and human umbilical vein endothelial cells. Briefly: VEGF-induced response in co-culture assay plated on collagen. From the text:
(§1) Protocol: For setting up the system, human umbilical vein endothelial cells, pooled from three donors, were purchased from Cambrex, and used between passages 3-6. […] For the tumor component, we used B16/F10 melanoma cells as the model cell line, which were stably transfected to express green fluorescent protein. Plasmid expressing enhanced green fluorescent protein (pEGFP-C2, Clontech) was linearized and lipofected (Lipofectamine 2000, Invitrogen) into B16-F10 cells. […] The GFP-B16/F10 cells were regularly cultured in DMEM supplemented with 5% FBS. Sterile glass coverslips (Corning) were coated with matrigel (extracellular matrix extracted from murine Englebreth-Holms sarcoma, diluted 1:3 in phosphate buffer saline; Becton Dickinson) or collagen (type I from rat's tail, Becton Dickinson). Synchronized human umbilical vein endothelial cells were trypsinised and plated on the coverslips at a density of 2×10^4 cells per well. The cells were allowed to adhere for 24 hours in endothelial basal media supplemented with 20% fetal bovine serum. […] The coverslips were mounted with antifade, and analysed with a LSM510 Zeiss confocal microscope. […] Data were expressed as the ratio of each component to the total area covered by cells.

For experiment [2] the test system is unchanged. Briefly: HGF-induced response in co-culture assay plated on collagen.
Description: as §1

Experiment [3] has the same test system. Briefly: VEGF-induced response in co-culture assay on matrigel. To be noted: for effect on tumor cells: Doxorubicin 10-50 μM. Also on record: VEGF-induced endothelial network: dose or concentration left out as unconfirmed. From the text: (§2) Protocol: For setting up the system, human umbilical vein endothelial cells, pooled from three donors, were purchased from Cambrex, and used between passages 3-6. […] For the tumor component, we used B16/F10 melanoma cells as the model cell line, which were stably transfected to express green fluorescent protein. Plasmid expressing enhanced green fluorescent protein (pEGFP-C2, Clontech) was linearized and lipofected (Lipofectamine 2000, Invitrogen) into B16-F10 cells. […] The GFP-B16/F10 cells were regularly cultured in DMEM supplemented with 5% FBS. Sterile glass coverslips (Corning) were coated with matrigel (extracellular matrix extracted from murine Englebreth-Holms sarcoma, diluted 1:3 in phosphate buffer saline; Becton Dickinson) or collagen (type I from rat's tail, Becton Dickinson). Synchronized human umbilical vein endothelial cells were trypsinised and plated on the coverslips at a density of 2×10^4 cells per well. The cells were allowed to adhere for 24 hours in endothelial basal media supplemented with 20% fetal bovine serum. At this time point, the media was replaced with EBM supplemented with 1% serum, and green fluorescent protein-expressing B16/F10 cells were added to the system at a density of 5×10^3 cells per well. The co-culture was allowed to incubate overnight, following which different treatments were added to the media. At 24 hours post-treatment, the cells were fixed in paraformaldehyde (4% on ice, for 20 min), and stained with propidium iodide. The coverslips were mounted with antifade, and analysed with a LSM510 Zeiss confocal microscope. […] Data were expressed as the ratio of each component to the total area covered by cells.

For experiment [4] the test system is unchanged. In words: HGF/SF-induced response in co-culture assay on matrigel.
Description: as §2

The test system is the same in experiment [5]. Briefly: Effect of VEGF and HGF on tumor angiogenesis in vitro, co-culture on matrigel. To be noted: growth factor added to co-culture on matrigel. Here is the method: Protocol: For setting up the system, human umbilical vein endothelial cells, pooled from three donors, were purchased from Cambrex, and used between passages 3-6. The cells were grown in endothelial basal medium supplemented with 20% fetal bovine serum (FBS) and bulletkit-2 (Sengupta et al. Cancer Res. 63 (23):8351-59, Dec. 1, 2003). For the tumor component, we used B16/F10 melanoma cells as the model cell line, which were stably transfected to express green fluorescent protein. Plasmid expressing enhanced green fluorescent protein (pEGFP-C2, Clontech) was linearized and lipofected (Lipofectamine 2000, Invitrogen) into B16-F10 cells. The stably integrated clones of B16-F10 cells were selected by 800 μg/ml G418. The green fluorescence of the G418 resistant clones was further confirmed by Flow Cytometry and epifluorescence microscopy. The GFP-B16/F10 cells were regularly cultured in DMEM supplemented with 5% FBS. […] The coverslips were mounted with antifade, and analysed with a LSM510 Zeiss confocal microscope. […] Quantification of the area covered by the endothelial cells or GFP-BL6/F10 cells was carried out using a planimetric point-count method using a 224-intersection point square reticulum. Data were expressed as the ratio of each component to the total area covered by cells. […]

Turning to `COc1cccc2c1C(=O)c1c(O)c3c(c(O)c1C2=O)C[C@@](O)(C(=O)CO)C[C@@H]3O[C@H]1C[C@H](N)[C@H](O)[C@H](C)O1` [Doxorubicin], the tumor cell death entry in experiment [1] (VEGF-treated co-culture) was “induced tumor cell death”; in experiment [2] (HGF/SF-treated co-culture), “induced tumor cell death”; in experiment [4], “selective induction of tumor cell death”. Further, the “effect on tumor cells” value in experiment [3] is listed as “selective ablation of the tumor cells in a concentration-dependent manner”. For the same compound, the VEGF-induced endothelial network entry in experiment [3] (highest concentration used) is recorded as “no effect on the VEGF-induced endothelial network”.
In the case of `Clc1ccc(Nc2nnc(Cc3ccncc3)c3ccccc23)cc1` [PTK787], the “VEGF-induced angiogenesis / vascular network” value in experiment [3] is given as “blocked”. Moreover, the “HGF/SF-induced response (endothelial network)” value in experiment [4] is recorded as “no effect on the HGF/SF-induced response”.
Take `O=C1CCC(N2C(=O)c3ccccc3C2=O)C(=O)N1` (centres unmarked) [thalidomide]: the “angiogenic effects of VEGF” value in experiment [1] is “inhibited the angiogenic effects of VEGF”. Also, the endothelial cell loss entry in experiment [2] (HGF/SF) is reported as “induced endothelial cell loss”. In experiment [3], the “VEGF-induced angiogenesis / vascular network” value is “collapse of the VEGF-induced vascular network” and the “effect on tumor cells” value was “without affecting the tumor cells”. In addition, in experiment [4], the “HGF/SF-induced response (endothelial network)” value is “failed to inhibit the HGF-induced effect”.
For the compound “HGF/SF: growth factor added to the co-culture”, in experiment [5], the vascular network entry was “significant increase in the vascular network”.
Still for that read-out and setting: the entry for VEGF is “significant increase in the vascular network”.
